# Reference: patent publication US12338262B2 (Forward Therapeutics, Inc., priority 2022, dated 2025)
# Molecular target: TNF-α (Homo sapiens, UniProt P01375)
# Assay: TNF-α Induced HEK Blue Cellular Assay
# Type: cell-based
# Details: HEK Blue TNFα reporter cells, TNF-α 100 pg/ml, 24 hrs at 37° C., secreted alkaline phosphatase (QUANTI-Blue, 620 nm)
# Method in brief: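 Read-out is SEAP via QUANTI-Blue absorbance at 620 nm after a 24 h, 37 °C incubation of reporter HEK Blue cells with 100 pg/ml TNF-α plus compound at final […]–0.5 nM. Percent inhibition normalised to DMSO ± stimulation; 4-parameter logistic fit gives IC50.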
# TNF-α, sequence (P01375 77-233 limits assumed): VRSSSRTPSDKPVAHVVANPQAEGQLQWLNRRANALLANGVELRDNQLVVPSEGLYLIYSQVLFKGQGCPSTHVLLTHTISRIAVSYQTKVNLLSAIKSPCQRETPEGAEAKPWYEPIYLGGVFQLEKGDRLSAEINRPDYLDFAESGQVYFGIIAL
row,SMILES,IC50 [nM]
1,"Cc1nc2cc(F)c(-c3ccc(P(C)(C)=O)nc3)cc2c(N[C@H](C)c2cc(F)cc(F)c2)c1Cl [Example 112, 3-chloro-N-[(1R)-1-(3,5-difluorophenyl)ethyl]-6-[6-(dimethylphosphoryl)pyridin-3-yl]-7-fluoro-2-methylquinolin-4-amine]",≤ 1000
2,"CC[C@@H](Nc1c(Cl)c(C)nc2cc(F)c(-c3cnc(P(C)(C)=O)nc3)cc12)c1cccc(F)c1F [Example 114, (R)-(5-(3-chloro-4-((1-(2,3-difluorophenyl)propyl)amino)-7-fluoro-2-methylquinolin-6-yl)pyrimidin-2-yl)dimethylphosphine oxide]",≤ 100
3,"CC[C@H](Nc1c(Cl)c(C)nc2cc(F)c(-c3cnc(P(C)(C)=O)nc3)cc12)c1cccc(F)c1F [Example 115, (S)-(5-(3-chloro-4-((1-(2,3-difluorophenyl)propyl)amino)-7-fluoro-2-methylquinolin-6-yl)pyrimidin-2-yl)dimethylphosphine oxide]",≤ 1000
4,"Cc1nc2cc(F)c(-c3ccc(P(C)(C)=O)c(F)c3)nc2c(N[C@H](C)c2cccc(Cl)c2F)c1Cl [Example 118, 3-chloro-N-[(1R)-1-(3-chloro-2-fluorophenyl)ethyl]-6-[4-(dimethylphosphoryl)-3-fluorophenyl]-7-fluoro-2-methyl-1,5-naphthyridin-4-amine]",≤ 1000
5,"Cc1nc2cc(F)c(-c3cnc(P(C)(C)=O)c(F)c3)nc2c(N[C@H](C)c2cc(C#N)ccc2F)c1Cl [Example 120, 3-[(1R)-1-({3-chloro-6-[6-(dimethylphosphoryl)-5-fluoropyridin-3-yl]-7-fluoro-2-methyl-1,5-naphthyridin-4-yl}amino)ethyl]-4-fluorobenzonitrile]",≤ 100
6,"Cc1nc2cc(F)c(-c3cnc(OCP(C)(C)=O)nc3)nc2c(N[C@H](C)c2cc(C#N)ccc2F)c1Cl [Example 121, 3-[(1R)-1-[(3-chloro-6-{2-[(dimethylphosphoryl)methoxy]pyrimidin-5-yl}-7-fluoro-2-methyl-1,5-naphthyridin-4-yl)amino]ethyl]-4-fluorobenzonitrile]",≤ 100
7,"CC[C@@H](Nc1c(Cl)c(C)nc2cc(F)c(-c3cnc(OCP(C)(C)=O)nc3)nc12)c1cccc(F)c1F [Example 125, 3-chloro-N-[(1R)-1-(2,3-difluorophenyl)propyl]-6-{2-[(dimethylphosphoryl)methoxy]pyrimidin-5-yl}-7-fluoro-2-methyl-1,5-naphthyridin-4-amine]",≤ 1000
8,"CC[C@H](Nc1c(Cl)c(C)nc2cc(F)c(-c3cnc(OCP(C)(C)=O)nc3)nc12)c1cccc(F)c1F [Example 126, 3-chloro-N-[(1S)-1-(2,3-difluorophenyl)propyl]-6-{2-[(dimethylphosphoryl)methoxy]pyrimidin-5-yl}-7-fluoro-2-methyl-1,5-naphthyridin-4-amine]",≤ 100
9,"Cc1nc2cc(F)c(-c3cnc(P(C)(C)=O)c(F)c3)nc2c(N[C@H](C)c2cc(F)cc(F)c2)c1Cl [Example 128, 3-chloro-N-[(1R)-1-(3,5-difluorophenyl)ethyl]-6-[6-(dimethylphosphoryl)-5-fluoropyridin-3-yl]-7-fluoro-2-methyl-1,5-naphthyridin-4-amine]",10000 to 30000
10,"Cc1nc2cc(F)c(-c3cnc(P(C)(C)=O)c(F)c3)cc2c(N[C@H](C)c2cc(F)cc(F)c2)c1Cl [Example 129, 3-chloro-N-[(1R)-1-(3,5-difluorophenyl)ethyl]-6-[6-(dimethylphosphoryl)-5-fluoropyridin-3-yl]-7-fluoro-2-methylquinolin-4-amine]",10000 to 30000
11,"Cc1nc2cc(F)c(-c3cnc(P(C)(C)=O)nc3)nc2c(N[C@H](C)c2cc(C#N)cc(F)c2F)c1Cl [Example 131, 3-[(1R)-1-({3-chloro-6-[2-(dimethylphosphoryl)pyrimidin-5-yl]-7-fluoro-2-methyl-1,5-naphthyridin-4-yl}amino)ethyl]-4,5-difluorobenzonitrile]",≤ 1000
12,"Cc1nc2cc(F)c(-c3cnc(P(C)(C)=O)c(F)c3)cc2c(N[C@H](C)c2cccc(F)c2F)c1Cl [Example 135, 3-chloro-N-[(1R)-1-(2,3-difluorophenyl)ethyl]-6-[6-(dimethylphosphoryl)-5-fluoropyridin-3-yl]-7-fluoro-2-methylquinolin-4-amine]",≤ 100
13,"Cc1nc2cc(F)c(-c3ccc(P4(=O)CCOCC4)nc3)nc2c(N[C@H](C)c2cc(C#N)ccc2F)c1Cl [Example 141, 3-[(1R)-1-({3-chloro-7-fluoro-2-methyl-6-[6-(4-oxo-1,4lambda5-oxaphosphinan-4-yl)pyridin-3-yl]-1,5-naphthyridin-4-yl}amino)ethyl]-4-fluorobenzonitrile]",1000 to 10000

# Further lines, results first:
row,IC50 [nM],SMILES
1,≤ 1000,"CC[C@@H](Nc1c(Cl)c(C)nc2cc(F)c(-c3cnc(P(C)(C)=O)nc3)nc12)c1cccc(F)c1F [Example 113, (R)-(5-(7-chloro-8-((1-(2,3-difluorophenyl)propyl)amino)-3-fluoro-6-methyl-1,5-naphthyridin-2-yl)pyrimidin-2-yl)dimethylphosphine oxide]"
2,≤ 1000,"Cc1nc2cc(F)c(-c3ccc(P(C)(C)=O)nc3)nc2c(N[C@H](C)c2cc(C#N)ccc2F)c1C [Example 119, 3-[(1R)-1-({6-[6-(dimethylphosphoryl)pyridin-3-yl]-7-fluoro-2,3-dimethyl-1,5-naphthyridin-4-yl}amino)ethyl]-4-fluorobenzonitrile]"
3,≤ 100,"Cc1nc2cc(F)c(-c3ccc(P(C)(C)=O)nc3)nc2c(N[C@@H](C)c2nc(C#N)ccc2F)c1Cl [Example 122, 6-[(1S)-1-({3-chloro-6-[6-(dimethylphosphoryl)pyridin-3-yl]-7-fluoro-2-methyl-1,5-naphthyridin-4-yl}amino)ethyl]-5-fluoropyridine-2-carbonitrile]"
4,≤ 1000,"Cc1nc2cc(F)c(-c3ccc(P(C)(C)=O)nc3)nc2c(N[C@H](C)c2nc(C#N)ccc2F)c1Cl [Example 123, 6-[(1R)-1-({3-chloro-6-[6-(dimethylphosphoryl)pyridin-3-yl]-7-fluoro-2-methyl-1,5-naphthyridin-4-yl}amino)ethyl]-5-fluoropyridine-2-carbonitrile]"
5,≤ 1000,"Cc1nc2cc(F)c(-c3cnc(OCP(C)(C)=O)nc3)nc2c(N[C@H](C)c2cccc(F)c2F)c1Cl [Example 124, 3-chloro-N-[(1R)-1-(2,3-difluorophenyl)ethyl]-6-{2-[(dimethylphosphoryl)methoxy]pyrimidin-5-yl}-7-fluoro-2-methyl-1,5-naphthyridin-4-amine]"
6,≤ 1000,"CC[C@H](Nc1c(Cl)c(C)nc2cc(F)c(-c3cnc(P(C)(C)=O)nc3)nc12)c1cccc(F)c1F [Example 127, 3-chloro-N-[(1S)-1-(2,3-difluorophenyl)propyl]-6-[2-(dimethylphosphoryl)pyrimidin-5-yl]-7-fluoro-2-methyl-1,5-naphthyridin-4-amine]"
7,≤ 1000,"Cc1nc2cc(F)c(-c3ccc(P(C)(C)=O)nc3)nc2c(N[C@H](C)c2cc(F)cc(Cl)c2)c1Cl [Example 130, 3-chloro-N-[(1R)-1-(3-chloro-5-fluorophenyl)ethyl]-6-[6-(dimethylphosphoryl)pyridin-3-yl]-7-fluoro-2-methyl-1,5-naphthyridin-4-amine]"
8,≤ 1000,"CC[C@H](Nc1c(Cl)c(C)nc2cc(F)c(-c3cnc(P(C)(C)=O)nc3)nc12)c1ncccc1F [Example 132, 3-chloro-6-[2-(dimethylphosphoryl)pyrimidin-5-yl]-7-fluoro-N-[(1S)-1-(3-fluoropyridin-2-yl)propyl]-2-methyl-1,5-naphthyridin-4-amine]"
9,≤ 100,"Cc1nc2cc(F)c(-c3ccc(P(C)(C)=O)nc3)nc2c(N[C@H](C)c2cccc(F)c2F)c1C [Example 133, N-[(1R)-1-(2,3-difluorophenyl)ethyl]-6-[6-(dimethylphosphoryl)pyridin-3-yl]-7-fluoro-2,3-dimethyl-1,5-naphthyridin-4-amine]"
10,1000 to 10000,"Cc1nc2cc(F)c(-c3ccc(P(C)(C)=O)nc3)nc2c(N[C@H](C)c2cccc(F)c2F)c1C1CC1 [Example 134, 3-cyclopropyl-N-[(1R)-1-(2,3-difluorophenyl)ethyl]-6-[6-(dimethylphosphoryl)pyridin-3-yl]-7-fluoro-2-methyl-1,5-naphthyridin-4-amine]"
11,≤ 1000,"Cc1nc2cc(F)c(-c3ccc(P(C)(C)=O)nc3)nc2c(NC(c2ncccc2F)C2CC2)c1Cl (stereo not shown) [Example 136, 3-chloro-N-[cyclopropyl(3-fluoropyridin-2-yl)methyl]-6-[6-(dimethylphosphoryl)pyridin-3-yl]-7-fluoro-2-methyl-1,5-naphthyridin-4-amine]"
12,≤ 1000,"Cc1nc2cc(F)c(-c3ccc(P(C)(C)=O)nc3)nc2c(N[C@@H](c2ccccc2)C2CC2)c1Cl [Example 137, 3-chloro-N—[(R)-cyclopropyl(phenyl)methyl]-6-[6-(dimethylphosphoryl)pyridin-3-yl]-7-fluoro-2-methyl-1,5-naphthyridin-4-amine]"
13,≤ 1000,"Cc1nc2cc(F)c(-c3ccc(P(C)(C)=O)nc3)nc2c(N[C@@H](c2cc(F)cc(F)c2)C2CC2)c1Cl [Example 138, 3-chloro-N—[(R)-cyclopropyl(3,5-difluorophenyl)methyl]-6-[6-(dimethylphosphoryl)pyridin-3-yl]-7-fluoro-2-methyl-1,5-naphthyridin-4-amine]"
14,≤ 1000,"Cc1nc2cc(F)c(-c3ccc(P(C)(C)=O)nc3)nc2c(N[C@H](c2cc(F)cc(F)c2)C2CC2)c1Cl [Example 139, 3-chloro-N—[(S)-cyclopropyl(3,5-difluorophenyl)methyl]-6-[6-(dimethylphosphoryl)pyridin-3-yl]-7-fluoro-2-methyl-1,5-naphthyridin-4-amine]"
15,≤ 1000,"Cc1nc2cc(F)c(-c3ccc(P(C)(C)=O)nc3)nc2c(N[C@H](c2ccccc2)C2CC2)c1Cl [Example 140, 3-chloro-N—[(S)-cyclopropyl(phenyl)methyl]-6-[6-(dimethylphosphoryl)pyridin-3-yl]-7-fluoro-2-methyl-1,5-naphthyridin-4-amine]"
